According to patent US10513534B2, “2′-chloro nucleoside analogs for HCV infection” (priority 2012, dated 2019):

Legend:
HCV genotype 1b replicon = test: HCV replicon assay (Zluc luciferase); format: cell-based; settings: Zluc cells, 72 hours; read-out: HCV Replicon EC50
Summary of the method: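 Zluc Huh-7 cells with HCV genotype 1b replicon and luciferase reporter treated with 5-fold dilutions (100 μM to 0.0000512 μM final) in duplicate, or at 1 and 10 μM. Luminescence read with ONE-glo; EC50 from dose-response fits, or % inhibition at the fixed concentrations.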

[1] = Stability in simulated intestinal fluid; format: in vitro ADME; settings: simulated intestinal fluid with pancreatin, 100 μM, 2 hours, 37° C.
Description: Stability in Simulated Gastric and Intestinal Fluids: Simulated gastric and intestinal fluids containing pepsin and pancreatin respectively were prepared according to the U.S. Pharmacopoeia USP291 procedure(www.pharmacopeia.cn/v29240/usp29nf24s0_ris1s126.html). Each test compound (final concentration 100 μM) was incubated in duplicate in the appropriate fluid for 2 hours at 37° C. The samples were quenched with […] cold acetonitrile, vortexed for 30 seconds and then centrifuged at 16100×g for 10 min. The supernatants were analyzed by HPLC on a C-18 column with UV detection at 252 nm. The time zero samples were prepared by adding SGF or SIF fluid to the quenching solvent followed by the test compound. Stability of the compound was determined by peak area of the test compound after incubation and calculated as percent of the peak area observed at time zero.

[2] = Stability in fresh whole blood; format: in vitro ADME; settings: human whole blood, 0.5 μM
Description: Stability of the test compounds was determined in fresh human whole blood with K2EDTA as the anticoagulant (stored refrigerated at 2-8° C. and used within 7 days of receipt). The experiment was conducted with three replicates for each time point. Whole blood, pre-incubated at 37° C. for 10-15 minutes, was fortified with a solution of test compound for a final concentration of 0.5 μM and mixed for 30 sec. At intervals (0, 0.5, 1 and 2 hr), three […] aliquots were combined with 200 μL (each) of an ice-cold solution of the internal standard (carbutamide 500 ng/mL in acetonitrile). The samples were vortexed for 30 sec and then centrifuged at 16100×g for 5 min. The supernatant was analyzed by LC-MS/MS. The MS peak area ratio of the test compound versus the internal standard was calculated and percent unchanged test compound was calculated for each time point using this ratio.

[3] = Stability in liver microsomes; format: in vitro ADME; settings: human liver microsomes 1.0 mg/mL, 10 μM, NADPH, 60 min
Description: Stability of test compounds were determined in human liver and intestinal microsomes in duplicate for each matrix. Pooled liver and intestinal microsomal proteins (1.0 mg/mL), suspended in incubation buffer (100 mM potassium phosphate, pH 7.4, 5 mM MgCl2, and 0.1 mM EDTA), were preincubated for 5 min at 37° C. with 10 μM of a test compound from a 10 mM stock solution in DMSO (final DMSO concentration was 0.1%); the reaction was initiated by the addition of NADPH (3 mM final concentration). At specific times (0 and 60 min), 0.1 mL samples were taken and the reaction terminated by the addition of 4 volumes of stop solution (acetonitrile with 500 ng/mL carbutamide as an internal standard). The samples were vortexed for 30 sec and then centrifuged at 16000×g for 10 min. 100 μL of supernatants were transferred to 96 deep-well plates preloaded with 100 μL distilled water and analyzed after mixing by LC-MS/MS. The MS peak area ratio of the test compound versus the internal standard was calculated and percent unchanged test compound over 60 minutes was calculated using this ratio.

[4] = Plasma nucleoside pharmacokinetics after single oral dose in CD-1 mice; format: in vivo; settings: single oral dose 10 mg/kg in PEG 200;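 on Ms Plasma nucleoside AUC: pmol·h/mL plasma normalized to a 1 µmol/kg dose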
Summary of the method: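 Mouse plasma was extracted by acetonitrile/0.2% formic acid protein precipitation using 2′-MeG-D3 or tiapride as internal standard. Nucleoside was quantified by positive-ion LC-MS/MS after C18 gradient separation. Calibration spanned 0.500 (LLOQ) to 200 ng/mL.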

[5] = Liver triphosphate pharmacokinetics after single oral dose in CD-1 mice; format: in vivo; settings: single oral dose 10 mg/kg in PEG 200;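 on Ms Liver TP AUC: pmol·h/g liver normalized to a 1 µmol/kg dose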;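 on Ms Liver TP Cmax: pmol/g liver normalized to a 1 µmol/kg dose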
Description: (§1) Internal standard solution was added to the homogenate followed by neutralization with 20% ammonium hydroxide solution and addition of 500 μL 1% formic acid. The tissue samples were extracted by weak anion exchange solid phase extraction (SPE). Post extraction, the eluates were evaporated under nitrogen, followed by reconstitution before injection onto the LC-MS/MS system.

[6] = Liver triphosphate pharmacokinetics after single oral dose in cynomolgus monkeys; format: in vivo; settings: 6 hours post dose, 10 mg/kg oral, normalized to 1 μmol/kg dose
Description: For each compound, a single oral dose at 10 mg/kg in PEG 200 (dose volume 3 mL/kg) was administered to cynomolgus monkeys. Untreated animals were used for the collection of control liver. Plasma samples were collected at 0.5, 1, 2, 4, 6, 8, 12 and 24 hours for compound 37, diastereomer 2.
as §1, with “Liver samples were analyzed for the relevant nucleoside triphosphate by LC-MS/MS. […] Appropriate internal” for “Internal”

CC(C)OC(=O)[C@H](C)NP(=O)(OC[C@H]1O[C@@H](n2ccc(=O)[nH]c2=O)[C@](C)(Cl)[C@@H]1O)Oc1ccccc1 (single isomer, unassigned) [Compound 40ii Diastereomer 2]
EC50 (HCV genotype 1b replicon): < 250 nM | SIF stability (percent remaining) [1]: + (+ ≤ 25%) | WB_Human (37° C.; 2 hr) stability (percent remaining) [2]: ++++ (75% < ++++) | HLM (1 hr) stability (percent remaining) [3]: ++ (25% < ++ ≤ 50%) | Ms Plasma nucleoside AUC [4]: +++ (500 < +++ ≤ 1500) | Ms Plasma nucleoside Cmax [4]: +++ (50 < +++ ≤ 100) | Ms Liver TP AUC [5]: +++ (500 < +++ ≤ 1500) | Ms Liver TP Cmax [5]: ++ (15 < ++ ≤ 50) | Nucleoside triphosphate in Liver C6 [6]: ++++ (100 < ++++)
